Experimental findings from patent publication US11427567B2, “Imidazolyl pyrimidinylamine compounds as CDK2 inhibitors” (Incyte Corporation, priority 2019, dated 2022) are described below.

The assay concerns the target CDK2/Cyclin E1 (Homo sapiens (Human), UniProt P24941). Put plainly: CDK2/Cyclin E1 HTRF enzyme activity assay (Example A). Type of assay: biochemical. As to conditions: 1 mM ATP. As to the method:
Assays were conducted in white 384-well polystyrene plates in a final reaction volume of 8 μL. […] HTRF signals were read after 1 hour at room temperature on a PHERAstar FS plate reader (BMG Labtech). Data was analyzed with IDBS XLFit and GraphPad Prism 5.0 software using a three or four parameter dose response curve to determine IC50 for each compound.
Background: In TR-FRET formats the signal depends on donor and acceptor labels being close together.

Broadly, the IC50 is the point on the concentration scale where inhibition reaches its midpoint. A higher IC50 goes with weaker potency.

Structures are written as SMILES. Some results are limits rather than exact numbers.

`CS(=O)(=O)N1CCC(Nc2ncc(C#N)c(-c3cn(CC(F)F)cn3)n2)CC1` [Example 26, 4-(1-(2,2-Difluoroethyl)-1H-imidazol-4-yl)-2-((1-(methylsulfonyl)piperidin-4-yl)amino)pyrimidine-5-carbonitrile] returned an IC50 of at most 50 nM.

As to `CC(C)(O)Cn1cnc(-c2nc(NC3CCN(S(C)(=O)=O)CC3)ncc2C#N)c1` [Example 27, 4-(1-(2-Hydroxy-2-methylpropyl)-1H-imidazol-4-yl)-2-((1-(methylsulfonyl)piperidin-4-yl)amino)pyrimidine-5-carbonitrile], the IC50 was at most 50 nM. In the case of `CS(=O)(=O)N1CCC(Nc2ncc(C#N)c(-c3cn(-c4ccc(C#N)cc4Cl)cn3)n2)CC1` [Example 28, 4-(1-(2-Chloro-4-cyanophenyl)-1H-imidazol-4-yl)-2-((1-(methylsulfonyl)piperidin-4-yl)amino)pyrimidine-5-carbonitrile], the IC50 was at most 50 nM. Take `O=S(=O)(C1CC1)N1CCC(Nc2ncc(C(F)(F)F)c(-c3cn(CC(F)F)cn3)n2)CC1` [Example 29, N-(1-(Cyclopropylsulfonyl)piperidin-4-yl)-4-(1-(2,2-difluoroethyl)-1H-imidazol-4-yl)-5-(trifluoromethyl)pyrimidin-2-amine]: the IC50 was at most 50 nM. The molecule `CC(C)(O)Cn1cnc(-c2nc(NC3CCN(S(=O)(=O)C4CC4)CC3)ncc2C(F)(F)F)c1` [Example 30, 1-(4-(2-((1-(Cyclopropylsulfonyl)piperidin-4-yl)amino)-5-(trifluoromethyl)pyrimidin-4-yl)-1H-imidazol-1-yl)-2-methylpropan-2-ol] displayed an IC50 of at most 50 nM. `CS(=O)(=O)N1CCC(Nc2ncc(C(F)(F)F)c(-c3cn(-c4ccccc4C#N)cn3)n2)CC1` [Example 31, 2-(4-(2-((1-(Methylsulfonyl)piperidin-4-yl)amino)-5-(trifluoromethyl)pyrimidin-4-yl)-1H-imidazol-1-yl)benzonitrile]: the IC50 was at most 50 nM. The value for `CS(=O)(=O)N1CCC(Nc2ncc(C(F)(F)F)c(-c3cn(-c4cccnc4C(F)(F)F)cn3)n2)CC1` [Example 32, N-(1-(Methylsulfonyl)piperidin-4-yl)-5-(trifluoromethyl)-4-(1-(2-(trifluoromethyl)pyridin-3-yl)-1H-imidazol-4-yl)pyrimidin-2-amine] was at most 50 nM; that for `Cc1nc(C#N)ccc1-n1cnc(-c2nc(NC3CCN(S(C)(=O)=O)CC3)ncc2C(F)(F)F)c1` [Example 33, 6-Methyl-5-(4-(2-((1-(methylsulfonyl)piperidin-4-yl)amino)-5-(trifluoromethyl)pyrimidin-4-yl)-1H-imidazol-1-yl)picolinonitrile] was at most 50 nM. With `CS(=O)(=O)N1CCC(Nc2ncc(C(F)(F)F)c(-c3cn(-c4cccnc4C#N)cn3)n2)CC1` [Example 34, 3-(4-(2-((1-(Methylsulfonyl)piperidin-4-yl)amino)-5-(trifluoromethyl)pyrimidin-4-yl)-1H-imidazol-1-yl)picolinonitrile], the IC50 was at most 50 nM. The molecule `Cc1cc(C#N)ccc1-n1cnc(-c2nc(NC3CCN(S(C)(=O)=O)CC3)ncc2C(F)(F)F)c1` [Example 35, 3-Methyl-4-(4-(2-((1-(methylsulfonyl)piperidin-4-yl)amino)-5-(trifluoromethyl)pyrimidin-4-yl)-1H-imidazol-1-yl)benzonitrile] had a half-maximal inhibitory concentration (IC50) of at most 50 nM. The value for `Cc1ccc(-n2cnc(-c3nc(NC4CCN(S(C)(=O)=O)CC4)ncc3C(F)(F)F)c2)c(C#N)n1` [Example 36, 6-Methyl-3-(4-(2-((1-(methylsulfonyl)piperidin-4-yl)amino)-5-(trifluoromethyl)pyrimidin-4-yl)-1H-imidazol-1-yl)picolinonitrile] was at most 50 nM; that for `CS(=O)(=O)N1CCC(Nc2ncc(C(F)(F)F)c(-c3cn(-c4cccnc4C(F)F)cn3)n2)CC1` [Example 37, 4-(1-(2-(Difluoromethyl)pyridin-3-yl)-1H-imidazol-4-yl)-N-(1-(methylsulfonyl)piperidin-4-yl)-5-(trifluoromethyl)pyrimidin-2-amine] was at most 50 nM; that for `CS(=O)(=O)N1CCC(Nc2ncc(C(F)(F)F)c(-c3cn(-c4cccc(C#N)c4C(F)(F)F)cn3)n2)CC1` [Example 38, 3-(4-(2-((1-(Methylsulfonyl)piperidin-4-yl)amino)-5-(trifluoromethyl)pyrimidin-4-yl)-1H-imidazol-1-yl)-2-(trifluoromethyl)benzonitrile] was at most 50 nM.

For the molecule `COc1ccc(-n2cnc(-c3nc(NC4CCN(S(C)(=O)=O)CC4)ncc3C(F)(F)F)c2)c(C#N)n1` [Example 39, 6-Methoxy-3-(4-(2-((1-(methylsulfonyl)piperidin-4-yl)amino)-5-(trifluoromethyl)pyrimidin-4-yl)-1H-imidazol-1-yl)picolinonitrile], the half-inhibitory concentration (IC50) is at most 50 nM. `CN(C)CCOc1ccc(-n2cnc(-c3nc(NC4CCN(S(C)(=O)=O)CC4)ncc3C(F)(F)F)c2)c(C#N)n1` [Example 40, 6-(2-(Dimethylamino)ethoxy)-3-(4-(2-((1-(methylsulfonyl)piperidin-4-yl)amino)-5-(trifluoromethyl)pyrimidin-4-yl)-1H-imidazol-1-yl)picolinonitrile] came in with a concentration for half-maximal inhibition (IC50) of at most 50 nM. In turn, `CCc1ccc(-n2cnc(-c3nc(NC4CCN(S(C)(=O)=O)CC4)ncc3C(F)(F)F)c2)c(C#N)n1` [Example 41, 6-Ethyl-3-(4-(2-((1-(methylsulfonyl)piperidin-4-yl)amino)-5-(trifluoromethyl)pyrimidin-4-yl)-1H-imidazol-1-yl)picolinonitrile] registered a half-maximal inhibitory concentration (IC50) of at most 50 nM. The molecule `Cc1c(C#N)cccc1-n1cnc(-c2nc(N[C@H]3CCN(S(C)(=O)=O)C[C@H]3F)ncc2C(F)(F)F)c1` [Example 42, 3-(4-(2-(((3R,4S)-3-Fluoro-1-(methylsulfonyl)piperidin-4-yl)amino)-5-(trifluoromethyl)pyrimidin-4-yl)-1H-imidazol-1-yl)-2-methylbenzonitrile] yielded an IC50 of at most 50 nM. In turn, `Cc1c(C#N)cccc1-n1cnc(-c2nc(NC3CCN(S(C)(=O)=O)CC3)ncc2C(F)(F)F)c1` [Example 43, 2-Methyl-3-(4-(2-((1-(methylsulfonyl)piperidin-4-yl)amino)-5-(trifluoromethyl)pyrimidin-4-yl)-1H-imidazol-1-yl)benzonitrile] had a half-maximal inhibitory concentration (IC50) of at most 50 nM.

`Cc1ccc(-n2cnc(-c3nc(NC4CCN(S(C)(=O)=O)CC4)ncc3C(F)(F)F)c2)c(C(F)(F)F)n1` [Example 44, 4-(1-(6-Methyl-2-(trifluoromethyl)pyridin-3-yl)-1H-imidazol-4-yl)-N-(1-(methylsulfonyl)piperidin-4-yl)-5-(trifluoromethyl)pyrimidin-2-amine] registered an IC50 of at most 50 nM.

`CS(=O)(=O)N1CC[C@H](Nc2ncc(C(F)(F)F)c(-c3cn(-c4cccc(C#N)c4Cl)cn3)n2)[C@H](F)C1` [Example 45, 2-Chloro-3-(4-(2-(((3R,4S)-3-fluoro-1-(methylsulfonyl)piperidin-4-yl)amino)-5-(trifluoromethyl)pyrimidin-4-yl)-1H-imidazol-1-yl)benzonitrile]: the IC50 is at most 50 nM. `Cc1ccc(-n2cnc(-c3nc(N[C@H]4CCN(S(C)(=O)=O)C[C@H]4F)ncc3C(F)(F)F)c2)c(C(F)(F)F)n1` [Example 46, N-((3R,4S)-3-Fluoro-1-(methylsulfonyl)piperidin-4-yl)-4-(1-(6-methyl-2-(trifluoromethyl)pyridin-3-yl)-1H-imidazol-4-yl)-5-(trifluoromethyl)pyrimidin-2-amine] came in with a half-inhibitory concentration (IC50) of at most 50 nM.

For `CS(=O)(=O)N1CC[C@H](Nc2ncc(C(F)(F)F)c(-c3cn(-c4cccnc4C#N)cn3)n2)[C@H](F)C1` [Example 47, 3-(4-(2-(((3R,4S)-3-Fluoro-1-(methylsulfonyl)piperidin-4-yl)amino)-5-(trifluoromethyl)pyrimidin-4-yl)-1H-imidazol-1-yl)picolinonitrile], the half-inhibitory concentration (IC50) was at most 50 nM.

For the molecule `CS(=O)(=O)N1CC[C@H](Nc2ncc(C(F)(F)F)c(-c3cn(-c4cccnc4C(F)(F)F)cn3)n2)[C@H](F)C1` [Example 48, N-((3R,4S)-3-Fluoro-1-(methylsulfonyl)piperidin-4-yl)-5-(trifluoromethyl)-4-(1-(2-(trifluoromethyl)pyridin-3-yl)-1H-imidazol-4-yl)pyrimidin-2-amine], the half-maximal inhibitory concentration (IC50) was at most 50 nM. Turning to `Cc1nc(C#N)ccc1-n1cnc(-c2nc(N[C@H]3CCN(S(C)(=O)=O)C[C@H]3F)ncc2C(F)(F)F)c1` [Example 49, 5-(4-(2-(((3R,4S)-3-Fluoro-1-(methylsulfonyl)piperidin-4-yl)amino)-5-(trifluoromethyl)pyrimidin-4-yl)-1H-imidazol-1-yl)-6-methylpicolinonitrile], the IC50 was at most 50 nM. The molecule `CS(=O)(=O)N1CC[C@H](Nc2ncc(C(F)(F)F)c(-c3cn(-c4cccnc4C(F)F)cn3)n2)[C@H](F)C1` [Example 50, 4-(1-(2-(Difluoromethyl)pyridin-3-yl)-1H-imidazol-4-yl)-N-((3R,4S)-3-fluoro-1-(methylsulfonyl)piperidin-4-yl)-5-(trifluoromethyl)pyrimidin-2-amine] displayed an IC50 of at most 50 nM. The molecule `Cc1ccc(-n2cnc(-c3nc(N[C@H]4CCN(S(C)(=O)=O)C[C@H]4F)ncc3C(F)(F)F)c2)c(C#N)n1` [Example 51, 3-(4-(2-(((3R,4S)-3-Fluoro-1-(methylsulfonyl)piperidin-4-yl)amino)-5-(trifluoromethyl)pyrimidin-4-yl)-1H-imidazol-1-yl)-6-methylpicolinonitrile] showed a half-maximal inhibitory concentration (IC50) of at most 50 nM. `COc1ccc(-n2cnc(-c3nc(N[C@H]4CCN(S(C)(=O)=O)C[C@H]4F)ncc3C(F)(F)F)c2)c(C#N)n1` [Example 52, 3-(4-(2-(((3R,4S)-3-Fluoro-1-(methylsulfonyl)piperidin-4-yl)amino)-5-(trifluoromethyl)pyrimidin-4-yl)-1H-imidazol-1-yl)-6-methoxypicolinonitrile] displayed a half-inhibitory concentration (IC50) of at most 50 nM.
